Legend:
[1] = tested on: Streptococcus pyogenes C 203; experiment: In vitro MIC, two-fold dilution in microtiter; format: cell-based; settings: 18-24 h at 37° C., inoculum about 10^4 CFU/ml
Experimental: (§1) Broth cultures are diluted enough so that the final inecuium is about 10^4 colony forming units/ml (CFU/ml).

[2] = tested on: Streptococcus faecalis ATCC 7080; experiment: In vitro MIC, two-fold dilution in microtiter; format: cell-based; settings: 18-24 h at 37° C., inoculum about 10^4 CFU/ml
Experimental: as §1

[3] = tested on: Proteus vulgaris X19H ATCC 881; experiment: In vitro MIC, two-fold dilution in microtiter; format: cell-based; settings: 18-24 h at 37° C., inoculum about 10^4 CFU/ml
Experimental: as §1

[4] = tested on: Staphylococcus epidermidis ATCC 12228; experiment: In vitro MIC, two-fold dilution in microtiter; format: cell-based; settings: 18-24 h at 37° C., inoculum about 10^4 CFU/ml
Experimental: as §1

[5] = tested on: Streptococcus pneumoniae UC 41; experiment: In vitro MIC, two-fold dilution in microtiter; format: cell-based; settings: 18-24 h at 37° C., inoculum about 10^4 CFU/ml
Experimental: as §1

[6] = tested on: Staphylococcus aureus TOUR; experiment: In vitro MIC, two-fold dilution in microtiter; format: cell-based; settings: 18-24 h at 37° C., inoculum about 10^4 CFU/ml
Experimental: as §1

[7] = tested on: Pseudomonas aeruginosa ATCC 10145; experiment: In vitro MIC, two-fold dilution in microtiter; format: cell-based; settings: for MIC Pseudomonas aeruginosa ATCC 10145: 18-24 h at 37° C., inoculum about 10^4 CFU/ml
Experimental: as §1

[8] = tested on: Staphylococcus haemolyticus L 602; experiment: In vitro MIC, two-fold dilution in microtiter; format: cell-based; settings: 18-24 h at 37° C., inoculum about 10^4 CFU/ml
Experimental: as §1

[9] = tested on: Escherichia coli SKF 12140; experiment: In vitro MIC, two-fold dilution in microtiter; format: cell-based; settings: 18-24 h at 37° C., inoculum about 10^4 CFU/ml
Experimental: as §1

Strep. pyogenes C 203 = experiment: In vivo test in mice septicemically infected with Strep. pyogenes C 203; settings: Strep. pyogenes C 203 septicemia
Source text: The ED50 values (mg/kg) of representative compounds of the invention in in vivo tests in mice septicemically infected with Strep. pyogenes. C 203, obtained according to the procedure described by V. Arioli et al. (Journal of Antibiotics 29, 511; 1976) are given in table III.

| Compound | MIC Streptococcus pyogenes C 203 [1] [microgram/ml] | MIC Streptococcus faecalis ATCC 7080 [2] [microgram/ml] | MIC Proteus vulgaris X19H ATCC 881 [3] [microgram/ml] | MIC Staphylococcus epidermidis ATCC 12228 [4] [microgram/ml] | MIC Streptococcus pneumoniae UC 41 [5] [microgram/ml] | MIC Staphylococcus aureus TOUR [6] [microgram/ml] | MIC Pseudomonas aeruginosa ATCC 10145 [7] [microgram/ml] | MIC Staphylococcus haemolyticus L 602 [8] [microgram/ml] | MIC Escherichia coli SKF 12140 [9] [microgram/ml] | MIC against Pseudomonas aeruginosa (comparison compounds) ([7]; strain not specified ("the same microorganism")) [microgram/ml] | ED50 p.o. (Strep. pyogenes C 203) | ED50 s.c. (Strep. pyogenes C 203) [mg/kg] |
| --- | --- | --- | --- | --- | --- | --- | --- | --- | --- | --- | --- | --- |
| NCCNCCCNCCNC(=O)C1NC(=O)C2NC(=O)C(NC(=O)C3NC(=O)C4NC(=O)C(Cc5ccc(c(Cl)c5)Oc5cc3cc(c5O)Oc3ccc(cc3Cl)C2O)NC(=O)C(N)c2ccc(O)c(c2)Oc2cc(O)cc4c2)c2ccc(O)c(c2)-c2c(O)cc(O)cc21 (centres unmarked) [Compound 24] | 0.06 | 0.12 | 128 | 0.06 | 0.12 | 0.06 | 64 | 0.06 | 4 | – | – | – |
| teicoplanin [reference compound] | – | – | – | – | – | – | – | – | – | ≥ 32 | – | – |
| NCCCN1CCN(CCCNC(=O)C2NC(=O)C3NC(=O)C(NC(=O)C4NC(=O)C5NC(=O)C(Cc6ccc(c(Cl)c6)Oc6cc4cc(c6O)Oc4ccc(cc4Cl)C3O)NC(=O)C(N)c3ccc(O)c(c3)Oc3cc(O)cc5c3)c3ccc(O)c(c3)-c3c(O)cc(O)cc32)CC1 (centres unmarked) [Compound 30] | 0.06 | 0.12 | 128 | 0.06 | 0.12 | 0.06 | 16 | 0.12 | 4 | – | – | – |
| NCCCNCCCCCCCCCNCCCNC(=O)C1NC(=O)C2NC(=O)C(NC(=O)C3NC(=O)C4NC(=O)C(Cc5ccc(c(Cl)c5)Oc5cc3cc(c5O)Oc3ccc(cc3Cl)C2O)NC(=O)C(N)c2ccc(O)c(c2)Oc2cc(O)cc4c2)c2ccc(O)c(c2)-c2c(O)cc(O)cc21 (centres unmarked) [Compound 54] | 0.03 | 2 | > 128 | 0.12 | 0.12 | 0.5 | 128 | 2 | > 128 | – | – | – |
| CN(C)CCCN1CCN(C(=O)C2NC(=O)C3NC(=O)C(NC(=O)C4NC(=O)C5NC(=O)C(Cc6ccc(c(Cl)c6)Oc6cc4cc(c6O)Oc4ccc(cc4Cl)C3O)NC(=O)C(N)c3ccc(O)c(c3)Oc3cc(O)cc5c3)c3ccc(O)c(c3)-c3c(O)cc(O)cc32)CC1 (centres unmarked) [Compound 53] | 0.06 | 0.12 | 128 | 0.06 | 0.12 | 0.06 | 32 | 0.06 | 8 | – | – | – |
| CC(=O)N[C@H]1[C@H](OC2c3ccc(c(Cl)c3)Oc3cc4cc(c3O[C@@H]3O[C@H](CO)[C@@H](O)[C@H](O)[C@H]3NC(=O)CCCCCCC(C)C)Oc3ccc(cc3Cl)CC3NC(=O)C(N)c5ccc(O)c(c5)Oc5cc(O)cc(c5)C(NC3=O)C(=O)NC4C(=O)NC3C(=O)NC2C(=O)NC(C(=O)NCCNCCN)c2cc(O)cc(O[C@H]4O[C@H](CO)[C@@H](O)[C@H](O)[C@@H]4O)c2-c2cc3ccc2O)O[C@H](CO)[C@@H](O)[C@@H]1O (some centres unmarked) [Compound 2] | – | – | – | – | – | – | – | – | – | – | about 60 mg/kg | 0.09 |
| CCN(CC)CCN(CCCN)CCCNC(=O)C1NC(=O)C2NC(=O)C(NC(=O)C3NC(=O)C4NC(=O)C(Cc5ccc(c(Cl)c5)Oc5cc3cc(c5O)Oc3ccc(cc3Cl)C2O)NC(=O)C(N)c2ccc(O)c(c2)Oc2cc(O)cc4c2)c2ccc(O)c(c2)-c2c(O)cc(O)cc21 (centres unmarked) [Compound 52] | 0.12 | 0.12 | > 128 | 0.03 | 0.12 | 0.12 | 128 | 0.12 | 32 | – | – | – |
| CC(=O)N[C@H]1[C@H](OC2c3ccc(c(Cl)c3)Oc3cc4cc(c3O)Oc3ccc(cc3Cl)CC3NC(=O)C(N)c5ccc(O)c(c5)Oc5cc(O)cc(c5)C(NC3=O)C(=O)NC4C(=O)NC3C(=O)NC2C(=O)NC(C(=O)NCCCNCCCCNCCCN)c2cc(O)cc(O[C@H]4O[C@H](CO)[C@@H](O)[C@H](O)[C@@H]4O)c2-c2cc3ccc2O)O[C@H](CO)[C@@H](O)[C@@H]1O (some centres unmarked) [Compound 39] | 0.12 | 0.5 | > 128 | 0.06 | 0.5 | 0.25 | 128 | 0.12 | 32 | – | – | – |
| CC(=O)NC1C(OC2c3ccc(c(Cl)c3)Oc3cc4cc(c3OC3OC(CO)C(O)C(O)C3NC(=O)CCCCCCC(C)C)Oc3ccc(cc3Cl)CC3NC(=O)C(N)c5ccc(O)c(c5)Oc5cc(O)cc(c5)C(NC3=O)C(=O)NC4C(=O)NC3C(=O)NC2C(=O)NC(C(=O)NCCCNCCCNCCCN)c2cc(O)cc(OC4OC(CO)C(O)C(O)C4O)c2-c2cc3ccc2O)OC(CO)C(O)C1O (centres unmarked) [Compound 9] | 0.06 | 0.12 | > 128 | 0.06 | 0.12 | 0.12 | 64 | 0.12 | > 128 | – | about 80 mg/kg | 0.06 |
| NCCNCCNC(=O)C1NC(=O)C2NC(=O)C(NC(=O)C3NC(=O)C4NC(=O)C(Cc5ccc(c(Cl)c5)Oc5cc3cc(c5O)Oc3ccc(cc3Cl)C2O)NC(=O)C(N)c2ccc(O)c(c2)Oc2cc(O)cc4c2)c2ccc(O)c(c2)-c2c(O)cc(O)cc21 (centres unmarked) [Compound 21] | 0.12 | 0.12 | 64 | 0.06 | 0.12 | 0.06 | 64 | 0.12 | 8 | – | – | – |
| CN(C)CCCN(CCCN)CCCNC(=O)C1NC(=O)C2NC(=O)C(NC(=O)C3NC(=O)C4NC(=O)C(Cc5ccc(c(Cl)c5)Oc5cc3cc(c5O)Oc3ccc(cc3Cl)C2O)NC(=O)C(N)c2ccc(O)c(c2)Oc2cc(O)cc4c2)c2ccc(O)c(c2)-c2c(O)cc(O)cc21 (centres unmarked) [Compound 51] | 0.06 | 0.25 | 128 | 0.06 | 0.12 | 0.12 | 32 | 0.12 | 8 | – | – | – |
| NCCCNCCCCCCCCCCNCCCNC(=O)C1NC(=O)C2NC(=O)C(NC(=O)C3NC(=O)C4NC(=O)C(Cc5ccc(c(Cl)c5)Oc5cc3cc(c5O)Oc3ccc(cc3Cl)C2O)NC(=O)C(N)c2ccc(O)c(c2)Oc2cc(O)cc4c2)c2ccc(O)c(c2)-c2c(O)cc(O)cc21 (centres unmarked) [Compound 55] | 0.12 | 1 | > 128 | 0.12 | 0.12 | 1 | > 128 | 1 | > 128 | – | – | – |
| CC(=O)N[C@H]1[C@H](OC2c3ccc(c(Cl)c3)Oc3cc4cc(c3O)Oc3ccc(cc3Cl)CC3NC(=O)C(N)c5ccc(O)c(c5)Oc5cc(O)cc(c5)C(NC3=O)C(=O)NC4C(=O)NC3C(=O)NC2C(=O)NC(C(=O)NCCCNCCCCNCCCN)c2cc(O)cc(O)c2-c2cc3ccc2O)O[C@H](CO)[C@@H](O)[C@@H]1O (some centres unmarked) [Compound 44] | 0.06 | 0.25 | 128 | 0.06 | 0.25 | 0.12 | 16 | 0.06 | 4 | – | – | – |
